Read-outs that look alike come from different tables or passages of the source.
What was measured:
[1] = target: CSF-1R (Homo sapiens (Human), UniProt P07333); experiment: Biochemical HTRF kinase assay, CSF-1R; details: recombinant human CSF-1R;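 also: enzyme incubated with inhibitor plus a substrate and ATP mix for one hour at room temperature before HTRF detection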
[2] = target: c-Kit (Homo sapiens (Human), UniProt P10721); experiment: Biochemical HTRF kinase assay, c-Kit;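 also: enzyme reaction with substrate and ATP run in 384-well plates for 1 hour at room temperature, kinase activity detected by HTRF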
[3] = target: FLT3 (Homo sapiens (Human), UniProt P36888); experiment: Biochemical HTRF kinase assay, FLT3
[4] = target: PDGFRβ (Homo sapiens (Human), UniProt P09619); experiment: Biochemical HTRF kinase assay, PDGFRβ;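 also: kinase reaction with substrate/ATP mix run 1 h at room temperature in 384-well format, HTRF signal detection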
[5] = tested on: Ba/F3_CSF-1R (stably expressing human CSF-1R kinase); experiment: Cell proliferation assay, Ba/F3_CSF-1R; assay type: cell-based; details: BaF3, 72 h, read-out: CSF-1R BaF3 EC50 (nM)
[6] = tested on: EOC2 cell; experiment: Cell proliferation assay, EOC2; assay type: cell-based, mouse; details: Mus musculus, 72 h, read-out: ECO2 EC50 (nM)
[7] = In vivo PK study (plasma and brain exposure); parameters: species or system CD1 mouse; details: for half-life: CD1, mouse
How it was run: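 Male CD1 mice (23-30 g, 6-8 weeks) dosed at 45 mg/kg p.o. or 2 mg/kg i.v. Serum and brain samples collected and quantified by LC-MS/MS.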

[8] = Brain protein binding study; assay type: in vitro ADME; details: mouse brain homogenate, equilibrium dialysis 4 hours
[9] = tested on: primary rat microglia; experiment: Primary rat microglia survival; assay type: cell-based; details: 3 days of exposure, Iba1 staining
Description: To assess the potency of CSF1R inhibitors disclosed herein we isolated and expanded primary brain glia from rat cortices in-vitro. This glial culture is about 20% microglia that is supported mostly by astrocytes that make up the rest of the population. The brain glia was exposed to CSF1R inhibitors for 3 days followed by paraformaldehyde fixation and immunofluorescence staining for the microglia marker, Iba1. The glial was imaged using a high-content-imager and the changes in microglia content were quantified. Using GraphPad Prism, a four-parameter logistic regression was applied to determine the potency of the CSF1R inhibitors.

[10] = tested on: human iPSC-derived microglia (hiPSC-MG); experiment: hiPSC-MG survival (Presto-Blue viability); assay type: cell-based; details: 48 h treatment

CSF-1R, sequence (P07333 20-972): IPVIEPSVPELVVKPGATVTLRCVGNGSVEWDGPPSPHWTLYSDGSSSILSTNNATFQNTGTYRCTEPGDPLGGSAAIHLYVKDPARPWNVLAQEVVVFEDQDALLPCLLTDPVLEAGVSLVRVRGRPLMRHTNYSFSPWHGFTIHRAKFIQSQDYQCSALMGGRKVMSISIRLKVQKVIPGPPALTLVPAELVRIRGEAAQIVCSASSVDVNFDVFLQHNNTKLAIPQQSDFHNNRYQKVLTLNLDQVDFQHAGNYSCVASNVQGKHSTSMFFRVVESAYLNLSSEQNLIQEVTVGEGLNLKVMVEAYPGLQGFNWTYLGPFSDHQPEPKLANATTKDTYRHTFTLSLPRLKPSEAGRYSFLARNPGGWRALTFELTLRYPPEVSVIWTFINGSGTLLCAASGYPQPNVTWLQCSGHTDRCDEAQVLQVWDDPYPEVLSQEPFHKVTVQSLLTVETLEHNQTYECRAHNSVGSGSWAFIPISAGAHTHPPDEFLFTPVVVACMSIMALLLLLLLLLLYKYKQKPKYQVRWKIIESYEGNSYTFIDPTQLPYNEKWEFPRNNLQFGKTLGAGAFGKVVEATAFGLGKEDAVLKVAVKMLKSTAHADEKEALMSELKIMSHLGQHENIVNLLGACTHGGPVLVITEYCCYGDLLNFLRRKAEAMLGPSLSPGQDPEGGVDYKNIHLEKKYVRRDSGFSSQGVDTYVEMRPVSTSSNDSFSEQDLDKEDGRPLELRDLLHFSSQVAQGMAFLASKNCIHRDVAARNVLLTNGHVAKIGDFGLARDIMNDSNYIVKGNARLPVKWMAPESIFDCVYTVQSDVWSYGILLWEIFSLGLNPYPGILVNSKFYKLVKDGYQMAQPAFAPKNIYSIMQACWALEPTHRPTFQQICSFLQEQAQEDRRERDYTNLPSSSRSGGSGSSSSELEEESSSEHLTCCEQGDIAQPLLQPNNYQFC
PDGFRβ, sequence (P09619 33-1106): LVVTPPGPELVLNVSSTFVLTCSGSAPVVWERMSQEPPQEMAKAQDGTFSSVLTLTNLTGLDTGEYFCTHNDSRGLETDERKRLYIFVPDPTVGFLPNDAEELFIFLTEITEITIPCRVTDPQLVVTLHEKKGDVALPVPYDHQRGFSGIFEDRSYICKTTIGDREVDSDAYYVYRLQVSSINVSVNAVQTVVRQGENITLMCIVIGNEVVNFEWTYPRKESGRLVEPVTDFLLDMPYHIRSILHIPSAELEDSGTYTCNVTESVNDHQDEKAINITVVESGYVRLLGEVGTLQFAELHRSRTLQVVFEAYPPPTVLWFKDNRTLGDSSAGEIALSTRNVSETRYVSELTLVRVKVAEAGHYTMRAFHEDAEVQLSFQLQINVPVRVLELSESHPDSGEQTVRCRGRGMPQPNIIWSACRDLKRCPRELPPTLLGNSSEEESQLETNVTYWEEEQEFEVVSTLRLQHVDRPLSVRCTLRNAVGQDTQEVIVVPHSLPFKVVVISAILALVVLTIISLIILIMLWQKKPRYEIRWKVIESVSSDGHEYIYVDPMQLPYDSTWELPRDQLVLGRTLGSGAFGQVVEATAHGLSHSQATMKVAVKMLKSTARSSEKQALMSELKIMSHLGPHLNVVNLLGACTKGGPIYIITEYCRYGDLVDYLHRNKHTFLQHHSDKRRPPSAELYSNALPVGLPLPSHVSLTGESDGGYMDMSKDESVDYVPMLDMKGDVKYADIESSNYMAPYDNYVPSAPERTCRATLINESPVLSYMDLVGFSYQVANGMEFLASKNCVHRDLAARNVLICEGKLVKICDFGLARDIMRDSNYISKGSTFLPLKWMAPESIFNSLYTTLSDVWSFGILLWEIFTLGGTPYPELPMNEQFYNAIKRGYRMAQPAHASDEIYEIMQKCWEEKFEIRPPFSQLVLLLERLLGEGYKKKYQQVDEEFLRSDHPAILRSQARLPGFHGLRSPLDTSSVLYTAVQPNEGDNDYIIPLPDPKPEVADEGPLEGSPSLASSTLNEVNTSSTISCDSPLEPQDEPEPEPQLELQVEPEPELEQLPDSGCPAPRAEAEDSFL
c-Kit, sequence (P10721 26-976): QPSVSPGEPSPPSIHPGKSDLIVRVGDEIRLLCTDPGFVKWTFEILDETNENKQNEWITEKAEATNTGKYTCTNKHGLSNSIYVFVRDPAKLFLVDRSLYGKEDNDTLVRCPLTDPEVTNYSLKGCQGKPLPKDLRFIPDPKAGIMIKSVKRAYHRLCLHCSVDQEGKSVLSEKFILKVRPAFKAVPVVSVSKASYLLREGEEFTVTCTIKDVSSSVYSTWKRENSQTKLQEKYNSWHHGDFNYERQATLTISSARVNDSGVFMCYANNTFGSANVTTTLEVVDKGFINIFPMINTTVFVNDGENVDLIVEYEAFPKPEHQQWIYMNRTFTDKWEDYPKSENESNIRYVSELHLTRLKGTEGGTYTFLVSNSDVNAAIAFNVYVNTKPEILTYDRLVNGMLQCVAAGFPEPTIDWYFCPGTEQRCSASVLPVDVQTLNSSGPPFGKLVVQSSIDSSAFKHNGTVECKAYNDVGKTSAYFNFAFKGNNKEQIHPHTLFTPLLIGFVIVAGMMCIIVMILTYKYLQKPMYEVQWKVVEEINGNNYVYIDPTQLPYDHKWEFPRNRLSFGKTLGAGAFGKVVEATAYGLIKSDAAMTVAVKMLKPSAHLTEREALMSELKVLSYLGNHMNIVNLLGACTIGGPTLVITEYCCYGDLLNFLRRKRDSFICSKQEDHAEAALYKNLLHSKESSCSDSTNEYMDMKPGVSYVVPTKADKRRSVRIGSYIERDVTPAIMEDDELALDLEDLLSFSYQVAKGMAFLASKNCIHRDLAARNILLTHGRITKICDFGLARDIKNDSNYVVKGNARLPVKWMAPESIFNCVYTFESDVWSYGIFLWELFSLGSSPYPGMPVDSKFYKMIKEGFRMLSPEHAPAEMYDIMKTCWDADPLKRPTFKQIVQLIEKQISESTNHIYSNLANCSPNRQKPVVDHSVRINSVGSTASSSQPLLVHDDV
FLT3, sequence (P36888 27-993): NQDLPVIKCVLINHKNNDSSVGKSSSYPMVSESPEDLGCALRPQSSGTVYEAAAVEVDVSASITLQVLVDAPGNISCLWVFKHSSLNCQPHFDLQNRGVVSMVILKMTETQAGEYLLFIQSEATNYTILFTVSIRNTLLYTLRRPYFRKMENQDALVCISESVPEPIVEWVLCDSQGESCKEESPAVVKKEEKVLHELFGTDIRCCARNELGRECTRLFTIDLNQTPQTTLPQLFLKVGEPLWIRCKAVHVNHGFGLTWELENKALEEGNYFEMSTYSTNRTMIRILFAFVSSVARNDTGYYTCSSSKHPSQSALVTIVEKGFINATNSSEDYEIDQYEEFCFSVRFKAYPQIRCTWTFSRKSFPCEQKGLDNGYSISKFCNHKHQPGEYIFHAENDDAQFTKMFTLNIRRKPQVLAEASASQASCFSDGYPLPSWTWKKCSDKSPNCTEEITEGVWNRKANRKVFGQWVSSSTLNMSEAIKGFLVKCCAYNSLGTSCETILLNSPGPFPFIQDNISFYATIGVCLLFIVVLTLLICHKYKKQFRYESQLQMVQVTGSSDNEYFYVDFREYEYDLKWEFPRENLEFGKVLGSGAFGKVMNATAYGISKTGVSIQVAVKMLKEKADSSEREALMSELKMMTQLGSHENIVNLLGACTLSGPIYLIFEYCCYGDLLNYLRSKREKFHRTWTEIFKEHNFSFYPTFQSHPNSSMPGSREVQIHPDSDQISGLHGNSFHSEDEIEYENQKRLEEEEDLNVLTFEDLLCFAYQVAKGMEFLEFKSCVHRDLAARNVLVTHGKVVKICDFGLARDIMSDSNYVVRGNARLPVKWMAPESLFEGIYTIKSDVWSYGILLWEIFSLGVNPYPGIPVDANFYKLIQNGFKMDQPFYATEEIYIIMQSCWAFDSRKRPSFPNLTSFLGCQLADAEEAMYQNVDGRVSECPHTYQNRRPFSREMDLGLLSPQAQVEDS

For COc1cnc2c(Cc3cnc(OCc4cc5n(n4)CCOC5)c(OC)c3)ccnc2c1 [Example 73, 2-(((3-methoxy-5-((7-methoxy-1,5-naphthyridin-4-yl)methyl)pyridin-2-yl)oxy)methyl)-6,7-dihydro-4H-pyrazolo[5,1-c][1,4]oxazine], the IC50 ([1]; Table 2) was 0.0033 µM, the IC50 ([1]; Table 3) was 0.0033 µM and the IC50 ([2]; recombinant human protein, read-out: cKit IC50) was greater than 1 µM. The “cKit Fold” value ([2]; selectivity: IC50 of cKit as multiple of IC50 of CSF-1R) was greater than 100 fold, the IC50 ([3]; recombinant human protein) was greater than 1 µM and the “FLT3 Fold” value ([3]; selectivity: IC50 of FLT3 as multiple of IC50 of CSF-1R) was greater than 100 fold. The IC50 ([4]; recombinant human protein, read-out: PDGFR-1β IC50) was greater than 1 µM, the “PDGFR-1β Fold” value ([4]; selectivity: IC50 of PDGFR-1β as multiple of IC50 of CSF-1R) was greater than 100 fold and the EC50 [5] was 73.1 nM. For the same molecule, the EC50 [6] was 47.5 nM, the “IV-2mpk T1/2” value ([7]; CD1 mouse, i.v. 2 mg/kg) was 2.56 h and the Kp uu ([7]; male, CD1, brain, po, mouse, p.o. 45 mg/kg, BBB penetration) was 0.67. For the same molecule, the half-life ([7]; male, serum, iv, 2 mg/kg, CD1 mouse, i.v. 2 mg/kg, read-out: IV-2mpk T1/2 (converted)) was 2.52 h, the half-life ([7]; male, serum, po, 45 mg/kg, CD1 mouse, p.o. 45 mg/kg, read-out: PO-45mpk T1/2 (converted)) was 1.57 h and the AUC(0-t) ([7]; male, CD1, po, mouse, p.o. 45 mg/kg, brain, read-out: PO-45mpk AUClast-brain) was 31.8 µg·h/mL. It also gave an AUC(0-t) ([7]; male, CD1, po, mouse, p.o. 45 mg/kg, plasma, Tables 7 and 8, read-out: PO-45mpk AUClast-plasma) of 214 µg·h/mL, an AUC(0-inf) ([7]; male, serum, iv, CD1 mouse, i.v. 2 mg/kg, read-out: IV-2mpk AUCInf) of 9.09 µg·h/mL and an AUC(0-t) ([7]; male, serum, iv, CD1 mouse, i.v. 2 mg/kg, read-out: IV-2mpk AUClast) of 9.09 µg·h/mL. The clearance ([7]; male, serum, iv, CD1 mouse, i.v. 2 mg/kg, read-out: IV-2mpk CL (converted)) was 0.22 L/h/kg, the Vd ([7]; male, serum, iv, CD1 mouse, i.v. 2 mg/kg, read-out: IV-2mpk VSS) was 0.461 L/kg and the bioavailability ([7]; male, serum, po, CD1 mouse, p.o. 45 mg/kg vs i.v. 2 mg/kg) was 98.8%. For the same molecule, the AUC(0-t) ([7]; male, serum, po, CD1 mouse, p.o. 45 mg/kg, Tables 5 and 6, read-out: PO-45mpk AUClast) was 202 µg·h/mL, the AUC(0-inf) ([7]; male, serum, po, CD1 mouse, p.o. 45 mg/kg, read-out: PO-45mpk AUCInf) was 202 µg·h/mL and the Cmax ([7]; male, serum, po, CD1 mouse, p.o. 45 mg/kg, read-out: PO-45mpk Cmax) was 100 µg/mL. The Tmax ([7]; male, serum, po, CD1 mouse, p.o. 45 mg/kg, read-out: PO-45mpk Tmax) was 0.5 h, the “BPB-mouse (Bound) (%)” value [8] was 95.5% and the “primary rat microglia survival” value [9] was “dose-dependent inhibition of primary rat microglia survival”. The “hiPSC-MG survival IC50 compared with BLZ945” value [10] was “lower than that of BLZ945” and the hiPSC-MG survival ([10]; FIG. 7B) was “dose-dependent inhibition of hiPSC-MG survival”.
